Measurements reported in paper PMC5505994 (Scientific Reports, 2017).

Target: T1, MbAhpC (Mycobacterium tuberculosis, UniProt P9WQB7)
T1 construct: gene ahpC
Conditions: read-out: K m ± SD

T1 sequence (P9WQB7 whole entry): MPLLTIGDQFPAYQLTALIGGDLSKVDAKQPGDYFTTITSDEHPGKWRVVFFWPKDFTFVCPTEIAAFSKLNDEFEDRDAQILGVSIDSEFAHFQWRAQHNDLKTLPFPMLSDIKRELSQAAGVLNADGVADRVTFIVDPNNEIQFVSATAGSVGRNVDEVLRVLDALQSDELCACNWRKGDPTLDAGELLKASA

`CC(C)(C)OO` [tert-butyl hydroperoxide] was tested, and the Km was 2.23 ± 0.49 µM.
